Measured values: ChEMBL document CHEMBL1130887, “Serine derived NK1 antagonists. 2: A pharmacophore model for arylsulfonamide binding” (Bioorg Med Chem Lett, 1998)

Each molecule was assayed against Substance-P receptor (Homo sapiens, UniProt P25103) (assay: Displacement of [125I]-substance P from hNK1 receptor in chinese hamster ovarian (CHO) cells).
Assay type: cell-based

Sequence of Substance-P receptor (P25103 whole entry): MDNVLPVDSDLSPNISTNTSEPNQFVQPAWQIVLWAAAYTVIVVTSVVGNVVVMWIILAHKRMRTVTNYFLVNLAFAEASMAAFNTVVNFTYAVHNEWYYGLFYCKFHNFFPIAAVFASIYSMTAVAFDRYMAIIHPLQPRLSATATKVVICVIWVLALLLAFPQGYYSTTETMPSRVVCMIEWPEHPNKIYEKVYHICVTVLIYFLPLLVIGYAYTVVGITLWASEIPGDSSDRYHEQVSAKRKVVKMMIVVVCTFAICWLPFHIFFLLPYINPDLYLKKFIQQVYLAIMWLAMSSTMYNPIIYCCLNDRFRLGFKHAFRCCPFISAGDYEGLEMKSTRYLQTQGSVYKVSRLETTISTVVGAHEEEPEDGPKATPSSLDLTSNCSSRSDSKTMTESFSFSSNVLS

| IC50 | Structure (SMILES) |
| --- | --- |
| 2500 nM | CS(=O)(=O)N1CCC2(CCN(C(=O)[C@H](COCc3ccc(Cl)c(Cl)c3)NCc3ccccc3)CC2)C1 |
| 17 nM | CS(=O)(=O)Nc1ccccc1C1CCN(C(=O)[C@H](COCc2ccc(Cl)c(Cl)c2)NCc2ccccc2)CC1 |
| 13 nM | COc1ccccc1N1CCN(C(=O)[C@H](COCc2ccc(Cl)c(Cl)c2)NCc2ccccc2)CC1 |
| 602 nM | O=C([C@H](COCc1ccc(Cl)c(Cl)c1)NCc1ccccc1)N1CCC2(CCc3ccccc32)CC1 |
| 330 nM | Cc1ccccc1C1CCN(C(=O)[C@H](COCc2ccc(Cl)c(Cl)c2)NCc2ccccc2)CC1 |
| 263 nM | COc1ccccc1C1CCN(C(=O)[C@H](COCc2ccc(Cl)c(Cl)c2)NCc2ccccc2)CC1 |
| 61 nM | CN(c1ccccc1C1CCN(C(=O)[C@H](COCc2ccc(Cl)c(Cl)c2)NCc2ccccc2)CC1)S(C)(=O)=O |
| 558 nM | Cc1ccccc1N1CCN(C(=O)[C@H](COCc2ccc(Cl)c(Cl)c2)NCc2ccccc2)CC1 |
| 4.8 nM | CS(=O)(=O)Nc1ccccc1N1CCN(C(=O)[C@H](COCc2ccc(Cl)c(Cl)c2)NCc2ccccc2)CC1 |
| 547 nM | CS(=O)(=O)N(CC1CCN(C(=O)[C@H](COCc2ccc(Cl)c(Cl)c2)NCc2ccccc2)CC1)c1ccccc1 |
| 1 nM | CS(=O)(=O)N1CC2(CCN(C(=O)[C@H](COCc3ccc(Cl)c(Cl)c3)NCc3ccccc3)CC2)c2ccccc21 |
| 382 nM | CS(=O)(=O)NCC1(c2ccccc2)CCN(C(=O)[C@H](COCc2ccc(Cl)c(Cl)c2)NCc2ccccc2)CC1 |
